# Several values for one entry are separate records, joined by “and”; a condition that tells them apart may be missing. Equal values may be shown once. Read-outs that look alike come from different tables or passages of the source. Where no end group is shown, it is not given here.
# How the values were obtained:
# [1] = test system: KMS-12-PE cells, Parental; assay: CellTiter-Glo cell viability, KMS-12-PE parental cells; format: cell-based; conditions: 3 independent experiments in duplicate
# [2] = test system: BCL-2 G101V; conditions: G101V relative to WT; cited from earlier work
# [3] = biological target: BCL-2 F104L; conditions: listed as Ven, cited from earlier work
# [4] = biological target: BCL-2 WT; conditions: competition vs BIMBH3 SPR surface, mean ± SD, n=3, previously reported, listed as Ven; cited from earlier work
# [5] = biological target: BCL-2 WT; conditions: cited from earlier work
# [6] = biological target: BCL-2 G101V/E152A double mutant (Homo sapiens, UniProt P10415, E152A/G101V); assay: SPR direct binding to immobilised BH3 peptides (kinetic fit), BCL-2 G101V/E152A double mutant
# Procedure: (§1) SPR experiments were performed as previously described. […] The lowest concentrations used in direct binding experiments were 1 nM for BIAcore 4000 and 0.1 nM for BIAcore S200 instruments, concentrations below these were below the sensitivity thresholds for the instruments. […] Direct binding experiments were fitted to a 1:1 binding site kinetic model, fitting on and off rates, in BIAevaluation software. For competition experiments steady-state responses were determined in BIAevaluation software according to the software defaults in affinity evaluation mode averaging responses for 5 sec. […] All affinity measurements were performed in at least two independent experiments using independent protein preparations.
# (§2) Raw data (coloured curves) were fitted (black curves) to a 1 site specific kinetic model to determine on and off rates and the equilibrium binding constant KD.
# (§3) The BCL-2 mutant proteins were diluted in a 2-fold dilution series, concentration ranges for curves are indicated. All experiments shown were performed on a BIAcore 4000, with the exception of (a) which was performed on a BIAcore S200.
# (§4) (1 picture or pasted object on this page, not shown here)
# [7] = biological target: BCL-2 E152A (Homo sapiens, UniProt P10415, E152A); assay: SPR direct binding to immobilised BH3 peptides (kinetic fit), BCL-2 E152A
# Procedure: as §1, §2, §3, §4
# [8] = biological target: BCL-2 F104C (Homo sapiens, UniProt P10415, F104C); assay: SPR direct binding to immobilised BH3 peptides (kinetic fit), BCL-2 F104C; conditions: for Kd: BCL-2 F104C
# Procedure: as §1, §2, §3, §4
# [9] = biological target: BCL-2 G101V; conditions: cited from earlier work
# [10] = biological target: BCL-2 F104L; conditions: cited from earlier work
# [11] = read-out: BAXBH3 KD (mean), direct binding, kinetic fit, mean ± SD, n ≥ 2, previously reported
# [12] = read-out: BAXBH3 KD, single independent experiments, independent experiments 1-3, previously reported
# [13] = read-out: BAXBH3 KD (mean), direct binding, kinetic fit, mean ± SD, n ≥ 2
# [14] = BCL-2 F104C binding BAXBH3, 1:1 kinetic fit, each independent experiment
# Sequence of BCL-2 F104C (P10415 with tags, fused parts or gaps F104C): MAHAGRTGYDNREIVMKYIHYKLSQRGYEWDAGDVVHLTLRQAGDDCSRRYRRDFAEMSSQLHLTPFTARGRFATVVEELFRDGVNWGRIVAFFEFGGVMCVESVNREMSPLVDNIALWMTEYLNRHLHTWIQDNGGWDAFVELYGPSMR
# Sequence of BCL-2 G101V/E152A double mutant (P10415 with tags, fused parts or gaps G101V/E152A): as the sequence (P10415 with tags, fused parts or gaps F104C) above, with G44V, C47F, E95A counted along it
# Sequence of BCL-2 E152A (P10415 with tags, fused parts or gaps E152A): as the sequence (P10415 with tags, fused parts or gaps F104C) above, with C47F, E95A counted along it
compound,measurement,setting,value
O=C(c1cc(-c2cc3c(cc2C(=O)N2Cc4ccccc4C[C@H]2CN2CCOCC2)OCO3)n2c1CCCC2)N(c1ccccc1)c1ccc(O)cc1 [Servier BCL2i],Raw data values in Figure 4a (cell viability),"[1]; Servier BCL2i concentration 0.002441 μM, 0.002441 µM",91.4402 and 90.8859 and 86.2314 and 89.8168 and 85.5276 and 83.3911
same,Raw data values in Figure 4a (cell viability),"[1]; Servier BCL2i concentration 0.019531 μM, 0.019531 µM",79.2854 and 83.3303 and 62.6836 and 66.1433 and 63.9237 and 63.1413
same,Raw data values in Figure 4a (cell viability),"[1]; Servier BCL2i concentration 0.15625 μM, 0.15625 µM",41.8118 and 47.4883 and 34.039 and 38.7009 and 36.6962 and 37.7057
same,Raw data values in Figure 4a (cell viability),"[1]; Servier BCL2i concentration 10 μM, 10 µM",0.8691 and 0.8133 and 1.2479 and 1.255 and 1.1789 and 1.099
CC1(C)CCC(CN2CCN(c3ccc(C(=O)NS(=O)(=O)c4ccc(NCC5CCOCC5)c([N+](=O)[O-])c4)c(Oc4cnc5[nH]ccc5c4)c3)CC2)=C(c2ccc(Cl)cc2)C1 [venetoclax],reduction of affinity of the drug for BCL-2 by the G101V mutation,[2],~180 fold
same,Ki,"[3]; competition vs BIMBH3 SPR surface, mean ± SD, n=3, previously reported, read-out: Ven KI (mean)",0.46 nM and 0.456 nM
same,Ki,"[3]; independent experiments 1-3, previously reported, read-out: Ven KI, single independent experiments",0.358 nM and 0.584 nM and 0.425 nM
same,Ki,[4],0.018 nM and 0.0181 nM
"BAXBH3: biotinylated BAXBH3 peptide ADASTKKLSECLKRIGDELDSNMELQRMIAA immobilised on SPR sensor chip (also: biotinylated, place not given here)",Kd,[5]; [11],1.4 nM and 1.37 nM
same,Kd,[5]; [12],1.6 nM and 1.14 nM and 1.36 nM
same,Kd,"[6]; read-out: BAXBH3 KD (mean), BCL-2 G101V/E152A, direct binding, kinetic fit, mean ± SD, n ≥ 2",5.5 nM and 5.51 nM
same,Kd,"[6]; read-out: BAXBH3 KD, single independent experiments, BCL-2 G101V, E152A (DM), independent experiments 1-2",5.7 nM and 5.31 nM
same,Kd,[7]; [13],3.6 nM and 3.55 nM
same,Kd,"[7]; read-out: BAXBH3 KD, single independent experiments, independent experiments 1-2",4.18 nM and 2.93 nM
same,ka,[8]; [14],1.67e+06 M⁻¹ s⁻¹ and 2e+06 M⁻¹ s⁻¹ and 2.06e+06 M⁻¹ s⁻¹
same,kd,[8]; [14],0.00709 s⁻¹ and 0.00791 s⁻¹ and 0.0079 s⁻¹
same,Kd,[8]; [13],4 nM and 4.02 nM
same,Kd,"[8]; read-out: BAXBH3 KD, single independent experiments, independent experiments 1-3",4.25 nM and 3.96 nM and 3.84 nM
same,Kd,[9]; [11],12 nM and 11.7 nM
same,Kd,[9]; [12],9.91 nM and 12.9 nM and 12.2 nM
same,Kd,[10]; [11],6.1 nM and 6.08 nM
same,Kd,[10]; [12],7.24 nM and 5.46 nM and 5.55 nM
